This experiment addresses T1, YqjM (Bacillus subtilis, UniProt P54550).
T1 construct: gene namA; purified YqjM flavoenzyme
T1 sequence (P54550 2-338): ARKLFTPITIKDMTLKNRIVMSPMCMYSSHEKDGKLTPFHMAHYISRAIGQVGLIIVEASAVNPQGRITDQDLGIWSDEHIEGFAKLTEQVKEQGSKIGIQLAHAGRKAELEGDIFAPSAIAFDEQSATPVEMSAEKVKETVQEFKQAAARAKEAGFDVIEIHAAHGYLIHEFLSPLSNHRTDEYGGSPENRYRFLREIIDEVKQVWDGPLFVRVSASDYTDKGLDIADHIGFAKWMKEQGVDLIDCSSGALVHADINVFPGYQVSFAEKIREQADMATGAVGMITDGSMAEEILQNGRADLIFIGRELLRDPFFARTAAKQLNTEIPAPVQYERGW
The experiment in a line: stopped-flow, flavin reduction at […] nm, anaerobic. The format is biochemical. Particulars: Tris-HCl 50 mM, pH 7.5, 25 °C; 25 μM YqjM; reductive half reaction.

Molecules are shown by their SMILES.

As to `NC(=O)C1=CN([C@@H]2O[C@H](COP(=O)(O)OP(=O)(O)OC[C@H]3O[C@@H](n4cnc5c(N)ncnc54)[C@H](O)[C@@H]3O)[C@@H](O)[C@H]2O)C=CC1` [NADH], the Kd (usually the constant that tells how readily two partners part at equilibrium) was 140 ± 24.5 µM.

In the case of `NC(=O)C1=CN([C@@H]2O[C@H](COP(=O)(O)OP(=O)(O)OC[C@H]3O[C@@H](n4cnc5c(N)ncnc54)[C@H](OP(=O)(O)O)[C@@H]3O)[C@@H](O)[C@H]2O)C=CC1` [NADPH], the Kd stood at 39.8 ± 7.1 µM.

The values are drawn from publication PMC7574619, “Engineering of NADPH Supply Boosts Photosynthesis-Driven Biotransformations” (ACS Catalysis, 2020).
